Source: paper PMC12491701, “Discovery of an APP-selective BACE1 inhibitor for Alzheimer's disease” (Neurotherapeutics, 2025)

What was measured:
[1] = test system: CHO cells that express APP with the Swedish (Swe) K595N/M596L mutation; test: Aβ1-42 production in CHO-7W Swe cells; assay type: cell-based, Chinese hamster; conditions: 1 μM, 24-h treatment, in words
Procedure: The Chinese hamster ovary (CHO) cell line overexpressing human AβPP (7W) stably transfected with human APP or overexpressing APP with the Swedish (Swe) K595 N/M596L mutation were incubated with FAH compounds diluted to 1 μM overnight. Culture Media was collected and frozen. Media was assayed using an AlphaLISA for Aβ1-42 (Perkin Elmer catalog # AL276C), sAPPα (R&D Systems catalog # AF1168 conjugated with Perkin Elmer acceptor beads catalog # 6772001 + 2B3 antibody from IBL catalog # 11088 biotinylated), and sAPPβ (Perkin Elmer AL276-acceptor + IBL catalog # 18957 biotinylated). For the assay, 2 μL of diluted or undiluted sample was added to a 384 well plate, followed by 2 μL of the respective antibody mixture. This was incubated for 1 h. Afterwards, 2 μL of donor beads was added to each well, followed by a 30-min incubation in the dark, after which the signal was read.

Plasma stability assay = assay type: in vitro ADME; conditions: human plasma diluted 2-fold in PBS, pH 7.4, 37 °C, 180 min, read-out: Plasma stability t1/2
Procedure: The effects of candidate ASBIs on BACE2 activity was assessed using the R&D Systems BACE2 activity assay kit (Catalog #: 4097-AS and ES010) formatted from to the manufacturers. For the assay, 4 μL of assay buffer was added to each well, followed by 2 μL of BACE2 diluted in assay buffer to 10 ng/µL.
Then, 2 μL of inhibitor, at the appropriate concentrations were added to the wells and incubated for 30 minutes at room temperature. For all dilutions of inhibitor, drug stock solutions of 10 mM in DMSO were diluted to 50 μM in water; subsequent dilutions were in 0.5% DMSO. Afterwards, 2 μL of fluorogenic BACE2 substrate, diluted to 50 μM in assay buffer, were added to each well, after which the signal generated was read every 30 minutes at 25 °C for 2 hr (Fig S2).
FAH65 and its enantiomers at 10 mM in 100% DMSO was diluted in PBS pH 7.4 to 100, 10, 1, and 0.1 µM; plus, a vehicle-only control. The solutions were incubated at 37 °C for 90 min and centrifuged at 16K x g for 5 min. An aliquot of each supernatant was analyzed by LC-MS/MS. […]
Kinetic solubility (µM) was calculated using the trendline equation with maximum chromatographic peak area observed in the aqueous sample. […]
([…]® CAN, Chiral Technologies, Cat#H15L-109, 5 µm 50 x 4 mm). […] The retention time of the compound (tr) and injection peak were recorded.
The percent protein binding (P) was calculated using the following equations: […]

[2] = Brain tissue binding assay; assay type: in vitro ADME, mouse; conditions: brain homogenate, 2 µM compound
Procedure: The […]
KIAM = (tr – t0) / t0; Pm = (KIAM / MW4) x 1010
Compounds with a Pm >0.85 are predicted to be BBB permeable (CNS+) at pH 7.4.
Brain Tissue Binding Assay
Brain tissue was homogenized in PBS (pH 7.4) (1: 3 weight(mg)/volume(µL)) and the protein concentration determined using the Micro BCA™ Pr otein Assay Kit (Thermo Fisher Scientific, Cat#23235). Brain homogenate was diluted to 20 mg/mL in PBS (pH 7.4) and added to Slide-A-Lyzer™ MINI Dialysis Devices, 10K MWCO dialysis cups (Thermo Fisher Scientific, Cat#PI88401) in a 48-well plate containing PBS (500 µL; pH 7.4). 1 µL of 1 mM compound was added to the brain homogenate (final concentration: 2 µM compound, 0.5% DMSO) and incubated on a rocker for 4.5 hours at 37 °C. 50 µL of brain homogenate (within the dialysis cup) and PBS (within the 48-well plate) were transferred to new microcentrifuge tubes containing 200 µL of quenching reagent (100% acetonitrile) containing internal standard. Solutions were clarified by centrifugation (16,000 x g, 5 min) and the supernatants were transferred to new tubes and lyophilized. Samples were reconstituted in 100 µL of 50/50/0.1 (Water/Acetonitrile/Formic Acid) prior to analysis via LC-MS/MS.
The % of the unbound drug was calculated using the following equation: fubound = [normalized peak area in buffer side / normalized peak area in brain side] x 100

half-life at 1 µM (Plasma stability assay): > 3 h
Brain tissue binding, funbound [2]: 3.1%
SMILES: Cc1cc(C2(c3cccc(-c4cncnc4)c3)N=C(N)N(C)C2=O)ccc1OC(F)F (stereo not drawn) [FAH65]
Aβ1-42 [1]: significantly decreases
